Literature values as cited in patent publication US20050004224A1, “Treatment of Alzheimer's disease with the R(-) isomer of a 2-arylpropionic acid non-steroidal anti-inflammatory drug alone or in combination with a cyclooxygenase-2 selective inhibitor” (Pharmacia Corporation, priority 2003, published 2005).

Key:
[1] = tested on: patients with osteoarthritis; details: Singer et al. 2000
murine cells = details: Ogawa et al. 2000
[2] = Lambat et al. 2000
A-beta 1-42 peptide = details: Weggen et al. 2001
neuronal cells = details: Blasko et al. 2001
[3] = Lambat et al. 2000; remark: listed apart in the source
AD models = details: chronic ibuprofen; some AD models; Lim et al. 2001
[4] = Asanuma et al. 2001

| Structure (SMILES) | beta-amyloid protein and interferon-gamma-induced NO production (murine cells) | production of the amyloidogenic A-beta 1-42 peptide (A-beta 1-42 peptide) | further results |
| --- | --- | --- | --- |
| CC(C)Cc1ccc([C@H](C)C(=O)O)cc1 (single isomer, unassigned) [S(+) isomer of ibuprofen] |  |  | effective NSAID for patients with osteoarthritis [1]: effective |
| CC(=O)Oc1ccccc1C(=O)O [aspirin] | did not produce such an effect |  |  |
| CC(C)Cc1ccc(C(C)C(=O)O)cc1 (stereo not drawn) [ibuprofen, α-methyl-4-[isobutyl]phenylacetic acid] | reduced | reduced | cyanide-induced speroxide production [2]: reducing; cytokine-induced amyloid Beta production (neuronal cells): reduced; quinolinic acid-induced lipid peroxidation [3]: reducing; inflammation and plaque-related pathology (AD models): suppress |
| COc1ccc2c(c1)c(CC(=O)O)c(C)n2C(=O)c1ccc(Cl)cc1 [indomethacin] | reduced | reduced |  |
| CC(C(=O)O)c1cccc(C(=O)c2ccccc2)c1 (stereo not drawn) [ketoprofen] |  |  | nitric oxide-scavenging ability [4]: have such activity |
| CSc1ccc(/C=C2/C(C)=C(CC(=O)O)c3cc(F)ccc32)cc1 [sulindac sulfide] |  | reduced |  |
